Source: article PMC10385850, “Modified Hederagenin Derivatives Demonstrate Ex Vivo Anthelmintic Activity against Fasciola hepatica” (Pharmaceutics, 2023)
Values joined by “and” are separate entries in the source; they are usually repeats but may differ in a detail not shown here. Equal entries are not always repeated. Where two headings read alike, the source gives them in different places.

Assays:
[1] = tested on: Madin–Darby bovine kidney (MDBK) cells; assay: MTT cell viability assay on MDBK cells; format: cell-based; settings: MDBK cells, MTT, 24 h exposure; read-out: CC50 with 95% CI on MDBK cells (cytotoxicity)
Description: (§1) MTT cell viability assays were performed on Madin–Darby bovine kidney (MDBK cells) for the five selected hederagenin derivatives (MC014, MC035, MC042, MC055 and MC062) using final concentrations of 100 μM, 75 μM, 50 μM, 25 μM, 10 μM, 5 μM and 1 μM (in 1% DMSO). Negative (1% v/v Triton X-100, Sigma-Aldrich, UK) and positive (1% v/v DMSO or media only) controls were included. The protocol was followed as previously described. Absolute EC50 values were calculated from the corrected absorbance of replicates by non-linear regression, after log transformation of concentrations and data normalization (where DMSO values represents 0% inhibition and TX-100 values represent 100% inhibition) using GrapPad Prism 8.

[2] = tested on: immature F. hepatica flukes (Italian strain); assay: Ex vivo motility assay on immature liver flukes (Italian strain), single concentration and dose response; format: cell-based, Fasciola hepatica; settings: for Average motility of 4 parasites with 95% CI at 24 hour time point: score 1 normal to 5 no movement or death; for Effect on immature fluke motility, in words: by 72 h
Description: The six selected compounds (at 40 µM in 0.4% DMSO) were evaluated on immature flukes (n = 4/condition) at 24, 48 and 72 h (Table S4). The protocol for culturing and scoring (motility) of these life stages have been previously described. Due to restricted numbers of immature worms, a dose response assay was conducted only for MC042. Here, immature worms (n = 2/concentration tested) were screened against descending concentrations of MC042 (40 µM, 13.3 µM and 4.4 µM); motility scores were recorded at 24, 48 and 72 h (Table S5). The scoring pattern used is identical to that described for NEJs.

[3] = tested on: wild strain adult F. hepatica; assay: Ex vivo motility assay on adult liver flukes (wild strain); format: cell-based, Fasciola hepatica; settings: 40 µM; for Effect on wild strain adult fluke motility, in words: 72 h; for Average motility of 4 parasites with 95% CI at 72 hour time point: wild strain adult flukes, score 1 good/normal to 6 no movement or dead
Description: Due to the high number of active molecules and a shortage of Italian strain adult liver flukes, the eleven hit compounds were screened for 72 h at 40 µM (in 0.4% DMSO) on wild strain adult F. hepatica (n = 4/condition) of unknown provenance (Table S3). The protocol for culturing and scoring (motility) the activity of these compounds was previously described (1—good/normal; 2—moderate; 3—resting (less than 10 s pulses of body and head), 4—apathetic (less than 2 s pulses of body and head), 5—paralysis and 6–no movement or dead worms). Six compounds were deemed active in these assays and were selected for further screening.

[4] = tested on: adult F. hepatica flukes (Italian strain); assay: Ex vivo dose response motility assay on adult liver flukes (Italian strain); format: cell-based, Fasciola hepatica; settings: for Average motility of 3 parasites treated with 4.4 µM, 24 hours / Average motility of 3 parasites treated with 4.4 µM, 48 hours / Average motility of 3 parasites treated with 4.4 µM, 72 hours / Average motility of 3 parasites treated with 13.3 µM, 24 hours / Average motility of 3 parasites treated with 13.3 µM, 48 hours / Average motility of 3 parasites treated with 13.3 µM, 72 hours / Average motility of 3 parasites treated with 40 µM, 24 hours / Average motility of 3 parasites treated with 40 µM, 48 hours / Average motility of 3 parasites treated with 40 µM, 72 hours: adult flukes Italian strain, score 1 to 6; for EC50: adult flukes, motility; for Effect on adult fluke (Italian strain) movement, in words: dose response, MC042 statement at 40 μM after 72 h
Description: The collection, ex vivo culturing and screening of adult liver fluke (Italian strain; n = 3/condition) was previously described. Dose response assays (40 µM, 13.3 µM and 4.4 µM) were conducted for MC014, MC042, MC035, MC055 and MC062 with motility scores recorded at 24, 48 and 72 h (Table S6).

[5] = tested on: F. hepatica newly excysted juveniles (NEJs), Italian strain; assay: Ex vivo screen against newly excysted juveniles (NEJs), phenotype and motility scoring; format: cell-based, Fasciola hepatica; settings: 10 µM; for Average phenotype of 25 NEJs with 95% CI, 24 hours / Average phenotype of 25 NEJs with 95% CI, 48 hours / Average phenotype of 25 NEJs with 95% CI, 72 hours: ultrastructure score 1 normal to 6 dead or dissolved; for Activity against NEJs (first screen), in words: 72 h co-culture
Procedure, shortened: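 Newly excysted juveniles of the Italian strain of F. hepatica were obtained by excysting metacercariae and exposed ex vivo to test compounds at 10 μM final concentration in 0.1% DMSO. Controls were 0.1% DMSO (negative) and 10 μM TCBZ in 0.1% DMSO (positive). Motility was scored from 1 (good/normal) to 5 (no movement), and ultrastructural phenotype changes were scored with an established matrix.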

[6] = MTT cell viability assay on MDBK cells; format: cell-based, bovine; settings: bovine, MDBK cells (Madin–Darby bovine kidney); MDBK cells, MTT, 24 h exposure; read-out: CC50 with 95% CI on MDBK cells (cytotoxicity)
Description: as §1

[7] = 40 µM, 48 h, immature flukes, score 1 to 5
[8] = 40 µM, 72 h, immature flukes, score 1 to 5
[9] = motility score 1 good/normal to 5 no movement

SMILES	Average motility of 4 parasites with 95% CI at 24 hour time point ([2]; 40 µM, 24 h, immature flukes)	Average motility of 4 parasites with 95% CI at 48 hour time point [2, 7]	Average motility of 4 parasites with 95% CI at 72 hour time point [2, 8]	Effect on immature fluke motility, in words ([2]; 40 µM)	Effect on wild strain adult fluke motility, in words [3]	Average motility of 4 parasites with 95% CI at 72 hour time point [3]	Average motility of 3 parasites treated with 4.4 µM, 24 hours ([4]; 24 h)	Average motility of 3 parasites treated with 4.4 µM, 48 hours [4]	Average motility of 3 parasites treated with 4.4 µM, 72 hours ([4]; 72 h)	Average motility of 3 parasites treated with 13.3 µM, 24 hours ([4]; 24 h)	Average motility of 3 parasites treated with 13.3 µM, 48 hours [4]	Average motility of 3 parasites treated with 13.3 µM, 72 hours ([4]; 72 h)	Average motility of 3 parasites treated with 40 µM, 24 hours ([4]; 24 h)	Average motility of 3 parasites treated with 40 µM, 48 hours [4]	Average motility of 3 parasites treated with 40 µM, 72 hours ([4]; 72 h)	Effect on adult fluke (Italian strain) movement, in words [4]	Average motility of 25 NEJs with 95% CI, 24 hours [5, 9]	Average phenotype of 25 NEJs with 95% CI, 24 hours [5]	Average motility of 25 NEJs with 95% CI, 48 hours [5, 9]	Average phenotype of 25 NEJs with 95% CI, 48 hours [5]	also measured
CC1(C)CC[C@]2(NC(=O)N3CCNCC3)CC[C@]3(C)C(=CCC4[C@@]5(C)CCC6OC(C)(C)OC[C@@]6(C)C5CC[C@]43C)C2C1 (stereo partly drawn) [MC035, N-((4aR,6aR,6bS,8aS,14bR)-2,2,4a,6a,6b,11,11,14b-Octamethyl-4a,5,6,6a,6b,7,8,9,10,11,12,12a,14,14a, 14b,15,16,16a-octadecahydro-4H-piceno[3,4-d][1,3]dioxin-8a(4bH)-yl)piper-azine-1-carboxamide]	5.00 (5.0;5.0)	5.00 (5.0;5.0)	5.00 (5.0;5.0)	paralyzed the assayed immature flukes	partial paralysis	5.75 (5.2; 6.2)	1.00 (1.0;1.0)	1.00 (1.0;1.0)	1.00 (1.0;1.0)	1.00 (1.0;1.0)	1.00 (1.0;1.0)	3.66 (2.3; 4.9)	2.33 (1.6;2.9)	4.33 (3.6;4.9)	5.00 (3.8;6.1)	Decreased movement	5.00 (5.0;5.0)	6.00 (6.0;6.0)	5.00 (5.0;5.0)	6.00 (6.0;6.0)	CC50 [1]: 79.8 µM; EC50 ([4]; 72 h, read-out: EC50 with 95% CI on Adult Flukes (motility), 72 hour): 14.3 µM; Average phenotype of 25 NEJs with 95% CI, 72 hours ([5]; 72 h): 6.00 (6.0;6.0); Activity against NEJs (first screen), in words [5]: maximal alterations to both phenotype/ultrastructure and motility
CC1(C)CC[C@]2(NC(=O)N3CCOCC3)CC[C@]3(C)C(=CCC4[C@@]5(C)CC[C@@H]6OC(C)(C)OC[C@@]6(C)C5CC[C@]43C)C2C1 (stereo partly drawn) [MC042, N-((4aR,6aR,6bS,8aS,14bR,16aS)-2,2,4a,6a,6b,11,11,14b-Octamethyl-4a,5,6,6a,6b,7,8,9,10,11,12,12a, 14,14a,14b,15,16,16a-octadecahydro-4H-piceno[3,4-d][1,3]dioxin-8a(4bH)-yl)-morpholine-4-carboxamide]	4.75 (4.2;5.2)	5.00 (5.0;5.0)	5.00 (5.0;5.0)	paralyzed the assayed immature flukes	no motility after 72 h	6.00 (6.0;6.0)	1.00 (1.0;1.0)	2.00 (2.0; 2.0)	3.00 (3.0; 3.0)	3.66 (3.0;4.3)	4.00(4.0; 4.0)	4.00 (4.0; 4.0)	5.33 (4.6;5.9)	5.66 (5.0;6.3)	5.66 (5.0,6.3)	two out of three adult flukes were completely immobilized	5.00 (5.0;5.0)	6.00 (6.0;6.0)	5.00 (5.0;5.0)	6.00 (6.0;6.0)	CC50 at 24 h [6]: 47.5 µM; Average motility of 2 parasites treated with 4.4 µM, 24 hours ([2]; 4.4 µM, 24 h, immature flukes, dose response, score 1 to 5): 4.00 (4.0;4.0); Average motility of 2 parasites treated with 4.4 µM, 48 hours ([2]; 4.4 µM, 48 h, immature flukes, dose response, score 1 to 5): 5.00 (5.0; 5.0); Average motility of 2 parasites treated with 4.4 µM, 72 hours ([2]; 4.4 µM, 72 h, immature flukes, dose response, score 1 to 5): 5.00 (5.0; 5.0); Average motility of 2 parasites treated with 13.3 µM, 24 hours ([2]; 13.3 µM, 24 h, immature flukes, dose response, score 1 to 5): 4.00 (4.0;4.0); Average motility of 2 parasites treated with 13.3 µM, 48 hours ([2]; 13.3 µM, 48 h, immature flukes, dose response, score 1 to 5): 5.00 (5.0; 5.0); Average motility of 2 parasites treated with 13.3 µM, 72 hours ([2]; 13.3 µM, 72 h, immature flukes, dose response, score 1 to 5): 5.00 (5.0; 5.0); Average motility of 2 parasites treated with 40 µM, 24 hours ([2]; 40 µM, 24 h, immature flukes, dose response, score 1 to 5): 5.00 (5.0;5.0); Average motility of 2 parasites treated with 40 µM, 48 hours ([2]; 40 µM, 48 h, immature flukes, dose response, score 1 to 5): 5.00 (5.0;5.0); Average motility of 2 parasites treated with 40 µM, 72 hours ([2]; 40 µM, 72 h, immature flukes, dose response, score 1 to 5): 5.00 (5.0,5.0); Selectivity Index (SI) on Immature Flukes SI=CC50/EC50, 24 hour ([2]; CC50 in MDBK cells / EC50 immature flukes, 24 h): 44 and 44.37; EC50 ([2]; Fasciola hepatica, immature flukes, motility, 24 h exposure, read-out: EC50 with 95% CI on Immature Flukes (motility), 24 hour): 1.07 µM; Effect on adult fluke (Italian strain) movement at lower concentrations, in words ([4]; 13.3 μM and 4.4 μM, after 72 h, compared to DMSO 0.4%): impaired movement; Selectivity Index (SI) on Adult Flukes SI=CC50/EC50, 72 hour ([4]; CC50 in MDBK cells (24 h) / EC50 adult flukes 72 h): 6.64; Selectivity Index (SI) on Adult Flukes SI=CC50/EC50, 24 hour ([4]; CC50 in MDBK cells / EC50 adult flukes, 24 h): 4 and 3.64; EC50 ([4]; Fasciola hepatica, 24 h exposure, read-out: EC50 with 95% CI on Adult Flukes (motility), 24 hour): 13 µM; EC50 ([4]; Fasciola hepatica, 72 h, read-out: EC50 with 95% CI on Adult Flukes (motility), 72 hour): 7.15 µM; Average motility of 25 NEJs with 95% CI, 72 hours ([5]; 72 h, motility score 1 good/normal to 5 no movement): 5.00 (5.0;5.0); Average phenotype of 25 NEJs with 95% CI, 72 hours ([5]; 72 h): 6.00 (6.0;6.0); Activity against NEJs (first screen), in words [5]: maximal alterations to both phenotype/ultrastructure and motility
